A short description of series [1]: in vitro. The procedure:
Study of the Creatine derivatives stability in aqueous solution, as well as in human and rat blood plasma was carried out by the method of Reversed Phase HPLC using a chromatography system, known as Beckman System Gold™ (USA) in the following configuration: Programmable Solvent Module 126, Manual Injector Rheodyne 7725i, Programmable Detector Module 166, featured with the Beckman System Gold Chromatography Software™. The analysis was carried out on the column Luna 5μ C18(2) 100 Å 150×4.6 mm (Phenomenex, USA) with the precolumn Guard Cartridge C18 at the flow rate 1 ml/min in the linear gradient of acetonitrile: for analogue from the Example 1 from 5 to 25% of acetonitrile in 20 min (A: 0.1% of […]—H2O, B: 0.1% of H3PO4-acetonitrile), in case of substance from the Examples 2÷8: from 3 to 23% of acetonitrile in 20 minutes. The detection was carried out on the wave length 220 nm. The samples dosing on the column was carried out by the loop 20 μl.
(§1) For the study of Creatine amides stability, 1 ml of water or blood plasma was added to 200 μl of aqueous solution of starting amide with a concentration of 2÷3 mg/ml then shaken; a probe volume of 200 μl was taken up immediately and analysis of an initial concentration of the Creatine amide was carried out. Further, the solution was placed into a vibro-thermostat at a temperature of 37° C., then aliquote 200 μl was taken up in 0.5, 1, and 3 hours of thermostatics. 20 μl 10% solution of trichloroacetic acid was added to the taken probe, and kept for 15 min at temperature (−)24° C., then centrifuged at 6000×g for 5 minutes for sedimentation of plasma proteins, supernatant was taken up and its analysis was carried out.
(§2) For evaluation of samples' stability, peak areas of a corresponding compound at the beginning of experiment and at selected time intervals were compared (Tables 1, 2).

Series [2] in a line: in vitro. The procedure:
The detection was carried out on the wave length 220 nm. The samples dosing on the column was carried out by the loop 20 μl.
as §1, §2
The source holds these as a separate data set.

For series [3] the following is noted: dosages up to 30 g for a few days, per os; cited from earlier work.
Where [4] appears, read: peak area relative to start, 37° C.

As a reminder, the amount remaining is what is left of the initial amount, in per cent.

With `CN(CC(=O)N[C@@H](Cc1ccccc1)C(N)=O)C(=N)N.O` [Example 2, Creatinyl-L-Phenylalanine Amide Hydrate], in series [1] (rat, plasma), the “Stability in a rat blood plasma, 0 h” value worked out at 100%; the “Stability in a rat blood plasma, 0.5 h” value is recorded as 100%; the “Stability in a rat blood plasma, 1 h” value is on record as 97%; the “Stability in a rat blood plasma, 3 h” value was found to be 98%. For the same molecule, in series [2] (human, plasma), the “Stability in human blood plasma, 0 h” value was 100%; the “Stability in human blood plasma, 0.5 h” value worked out at 99%; the “Stability in human blood plasma, 1 h” value is on record as 99%; the “Stability in human blood plasma, 3 h” value was determined as 100%.

For `CN(CC(=O)N[C@@H](Cc1ccccc1)C(=O)O)C(=N)N.Cl` [Example 8, Creatinyl-Phenylalanine hydrochloride], in series [1] (setting [4]), the “Stability in a rat blood plasma, 0 h” value was 100%; the “Stability in a rat blood plasma, 0.5 h” value is given as 98%; the “Stability in a rat blood plasma, 1 h” value stood at 98%; the “Stability in a rat blood plasma, 3 h” value amounted to 95%. In series [2] (setting [4]), the “Stability in human blood plasma, 0 h” value came to 100%; the “Stability in human blood plasma, 0.5 h” value was 99%; the “Stability in human blood plasma, 1 h” value was determined as 98%; the “Stability in human blood plasma, 3 h” value was found to be 97%.

With `CCOC(=O)CNC(=O)[C@H](CCCNC(=N)N)NC(=O)[C@H](Cc1ccccc1)NC(=O)CN(C)C(=N)N` [Example 7, Creatinyl-Phenylalanyl-Arginyl-Glycine Ethyl Ester Acetate], in series [1] (rat, plasma), the share remaining at 0.5 h is 93%; the share remaining at 1 h was found to be 92%; the amount remaining at 3 h stood at 85%; the “Stability in a rat blood plasma, 0 h” value was found to be 100%. In series [2] (human, plasma), the amount remaining at 0.5 h turned out to be 94%; the fraction remaining at 1 h worked out at 90%; the share remaining at 3 h was 85%; the “Stability in human blood plasma, 0 h” value is reported as 100%.

For `CC(=O)O.CN(CC(=O)N[C@@H](Cc1ccccc1)C(N)=O)C(=N)N` [Example 3, Creatinyl-L-Phenylalanine Amide Acetate], in series [1] (rat, plasma), the “Stability in a rat blood plasma, 0 h” value is 100%; the “Stability in a rat blood plasma, 0.5 h” value is given as 96%; the “Stability in a rat blood plasma, 1 h” value came out at 98%; the “Stability in a rat blood plasma, 3 h” value came out at 99%. Also, in series [2] (human, plasma), the “Stability in human blood plasma, 0 h” value came out at 100%; the “Stability in human blood plasma, 0.5 h” value was found to be 100%; the “Stability in human blood plasma, 1 h” value is 100%; the “Stability in human blood plasma, 3 h” value came out at 100%.

Turning to `CN(CC(=O)OCc1ccccc1)C(=N)N` [Creatine benzyl ester, reference compound], the “Decrease of concentration in human blood plasma” value in series [2] (during 0.75 hours) worked out at 53%. In series [2] (human, blood plasma), the fraction remaining at 0.75 h turned out to be 53% and the amount remaining at 3 h worked out at 46%. The “Stability in human blood plasma, 0 h” value in series [2] (setting [4]) is on record as 100%.

On to `CC(=O)O.CCOC(=O)CCCNC(=O)CN(C)C(=N)N` [Example 1, Creatinyl-γ-Aminobutyric Acid Ethyl Ester Acetate], for which, in series [1] (setting [4]), the “Stability in a rat blood plasma, 0 h” value turned out to be 100%; the “Stability in a rat blood plasma, 0.5 h” value is 96%; the “Stability in a rat blood plasma, 1 h” value is 98%; the “Stability in a rat blood plasma, 3 h” value is 99%. For the same molecule, in series [2] (setting [4]), the “Stability in human blood plasma, 0 h” value came to 100%; the “Stability in human blood plasma, 0.5 h” value is on record as 99%; the “Stability in human blood plasma, 1 h” value is listed as 103%; the “Stability in human blood plasma, 3 h” value worked out at 104%.

In the case of `CN(CC(=O)O)C(=N)N.O` [Creatine monohydrate], the “Increase of the total Creatine content in a human's skeleton muscles” value in series [3] was “more than 20%”.

With `CN(CC(=O)NCC(=O)OCc1ccccc1)C(=N)N.Cl` [Example 4, Creatinyl-Glycine Benzyl Ester Hydrochloride], in series [1] (rat, plasma), the “Stability in a rat blood plasma, 0 h” value came out at 100%; the “Stability in a rat blood plasma, 0.5 h” value was determined as 99%; the “Stability in a rat blood plasma, 1 h” value is listed as 99%; the “Stability in a rat blood plasma, 3 h” value is 96%. For the same molecule, in series [2] (human, plasma), the “Stability in human blood plasma, 0 h” value was 100%; the “Stability in human blood plasma, 0.5 h” value is on record as 98%; the “Stability in human blood plasma, 1 h” value worked out at 100%; the “Stability in human blood plasma, 3 h” value turned out to be 99%.
